Like-named read-outs stand apart in the source and are kept apart here.
Experiments:
Assay in all cases: microbe, parasite or virus in culture
Format in all cases: cell-based
[1] = system: SARS-CoV-2 lineage B strain (VIDO); details: Severe acute respiratory syndrome coronavirus 2, 72 h; Calu-3 cells, Fig. 3d, n = 4; read-out: EC50, dsRNA staining, Variant B (VIDO-01)
[2] = system: SARS-CoV-2 B.1.1.7 (Alpha); details: Calu-3 cells, n = 4
[3] = system: SARS-CoV-2 B.1.351 (Beta); details: Calu-3 cells, n = 4
SARS-CoV-2 P.1 (Gamma) = details: Calu-3 cells, n = 4
[4] = system: SARS-CoV-2 B.1.617.2 (Delta); details: Calu-3 cells, n = 4

**Q.** Which EC50 [1] does the source give for `CS(=O)(=O)NC(CCC(N)=O)C(=O)NC(Cc1ccccc1)C(=O)NC(CCCNC(=N)N)C(=O)c1nc2ccccc2s1` (stereo not drawn) [Compound N-0385, Ms-QFR-kbt] here?
**A.** 0.0143 µM

**Q.** And the EC50 ([2]; Severe acute respiratory syndrome coronavirus 2, 72 h, Fig. 3d, read-out: EC50, dsRNA staining, Variant B.1.1.7 (Alpha))?
**A.** 0.0026 µM

**Q.** What about the EC50 ([2]; Severe acute respiratory syndrome coronavirus 2, Fig. 3c, read-out: EC50, N staining, Variant B.1.1.7 (Alpha)) of the same compound?
**A.** 0.0021 µM

**Q.** And the EC50 ([3]; Severe acute respiratory syndrome coronavirus 2, 72 h, Fig. 3d, read-out: EC50, dsRNA staining, Variant B.1.351 (Beta))?
**A.** 0.022 µM

**Q.** And the EC50 ([3]; Severe acute respiratory syndrome coronavirus 2, Fig. 3c, read-out: EC50, N staining, Variant B.1.351 (Beta))?
**A.** 0.0128 µM

**Q.** And the EC50 (SARS-CoV-2 P.1 (Gamma); Severe acute respiratory syndrome coronavirus 2, 72 h, Fig. 3d, read-out: EC50, dsRNA staining, Variant P.1 (Gamma))?
**A.** 0.0054 µM

**Q.** And the EC50 (SARS-CoV-2 P.1 (Gamma); Severe acute respiratory syndrome coronavirus 2, Fig. 3c, read-out: EC50, N staining, Variant P.1 (Gamma))?
**A.** 0.0065 µM

**Q.** What about the EC50 ([4]; Severe acute respiratory syndrome coronavirus 2, 72 h, Fig. 3d, read-out: EC50, dsRNA staining, Variant B.1.617.2 (Delta)) of the same compound?
**A.** 0.0265 µM

**Q.** What about the EC50 ([4]; Severe acute respiratory syndrome coronavirus 2, Fig. 3c, read-out: EC50, N staining, Variant B.1.617.2 (Delta)) of the same compound?
**A.** 0.0139 µM

From article PMC9095466 (Nature, 2022)
